Measured values: patent publication US20100255580A1, “Differentiation of Human Embryonic Stem Cells” (LIFESCCAN, INC., priority 2007, published 2010)

Legend:
Format in all cases: cell-based
[1] = tested on: human embryonic stem cell line H1; test: Real-time PCR of definitive endoderm markers, H1 on human serum or […] (Examples 30, 31, 35); conditions: for expression of definitive endoderm markers: H1 passage 55 on human serum coated plates, with activin A, vs activin A only
Protocol: Cultures of the human embryonic stem cell line H1 at passage 55 were grown and differentiated on human serum (Sigma, #H1388, MO) coated plates. 0.5 ml of human serum was added to each well of 6 well tissue culture treated dish, incubated for 1 hr at room temperature, and aspirated before adding human embryonic stem cells. After cells reached 80% confluency, they were treated as follows: 2 days 0.5% FBS containing 10 ng/ml mouse recombinant Wnt3a (R&D) or 100 nM GSK-3B inhibitor IX (Catalog #361550, Calbiochem, CA) and 100 ng/mlActivin A (R&D). This was followed by 3 days 2% FBS plus 100 ng/mlActivin A. Cultures were then analyzed by real-time PCR (FIG. 46, panels a & b). […] These findings parallel our findings for human embryonic stem cells cultured on […]™ or human fibronectin coated plates.
The effectiveness of a number of commercially available GSK-3B inhibitors was evaluated in formation of DE from human embryonic stem cells. The following GSK-3B inhibitors were evaluated at 100 nM: GSK-3B inhibitor VIII (Catalog #361549, Calbiochem, CA), GSK-3B inhibitor IX (Catalog #361550, Calbiochem, CA), GSK-3B inhibitor XI (Catalog #361553, Calbiochem, CA), GSK-3B inhibitor XII (Catalog #361554, Calbiochem, CA). […] Control cultures were treated with low serum plus high dose of AA. FIG. 47, panels a and b depicts the gene expression of definitive endoderm markers at day 5. GSK-3B inhibitor IX and XI were both effective in inducing DE formation as compared to GSK-3B inhibitor VIII and XII.
The following combinations of WNT1+AA were tested:
a) 20 ng/ml of WNT1+100 ng/ml AA in 0.5% FBS+DM-F12 for days 1-2 followed by 2% FBS+DM-F12+100 ng/ml AA for day three, b) 20 ng/ml of WNT1+100 ng/ml AA in 0.5% FBS+DM-F12 for days 1-2 followed by 2% FBS+DM-F12+100 ng/ml AA for days 3-5, c) 10 ng/ml of WNT1+100 ng/ml AA in 0.5% FBS+DM-F12 for days 1-2 followed by 2% FBS+DM-F12+100 ng/ml AA for day three, d) 10 ng/ml of WNT1+100 ng/ml AA in 0.5% FBS+DM-F12 for days 1-2 followed by 2% FBS+DM-F12+100 ng/ml AA for days 3-5, e) 20 ng/ml of WNT1+100 ng/ml AA in 0.5% FBS+DM-F12 for days 1-2 followed by 2% FBS+DM-F12+100 ng/ml AA+20 ng/ml of WNT1 for day three, f) 20 ng/ml of WNT1+100 ng/ml AA in 0.5% FBS+DM-F12 for days 1-2 followed by 2% FBS+DM-F12+100 ng/ml AA+20 ng/ml of WNT1 for days 3-5.

[2] = tested on: human embryonic stem cell line H9; test: Real-time PCR, H9 maintained on […] and differentiated on MEFs (Example 25)
Protocol: (§1) Cells from the human embryonic stem cell line H9 cultured on […]™ for at least five passages were seeded onto MEF feeders in ES media.
(§2) At day 3 and 5, the cultures were analyzed by real time PCR for SOX-17, SOX-7, Alpha-fetal protein (AFP), CXCR4, Brychyury (Bry), gooscecoid (GSC), HNF-3 beta, GATA4, hTERT and Oct4. AFP and SOX-7 are regarded as visceral endoderm markers while GATA4, HNF-3beta and SOX-17 represent definite endoderm markers and GSC, Bry, and CXCR4 represent markers of primitive streak. hTERT and Oct-4 are markers for self renewal and pluripotency respectively. FACS analysis was also performed at day 3 and 5.

[3] = tested on: human embryonic stem cell line H9; test: FACS of CXCR4 and CD9, H9 maintained on […] and differentiated on MEFs (Example 25); conditions: for CXCR4 positive cells (FACS): without (label Activin A) or with Wnt3a
Protocol: Adhered cells were removed from culture plates by five-minute incubation with TrypLE™ Express solution (Invitrogen, CA). Released cells were resuspended in human embryonic stem cell culture medium and recovered by centrifugation, followed by washing and resuspending the cells in a staining buffer consisting of 2% BSA, 0.05% sodium azide in PBS (Sigma, MO). As appropriate, the cells were Fc-receptor blocked for 15 minutes using a 0.1% γ-globulin (Sigma) solution. […] Controls included appropriate isotype matched antibodies, unstained cells, and cells stained only with secondary conjugated antibody. All incubations with antibodies were performed for 30 mins at 4° C. after which the cells were washed with the staining buffer. Samples that were stained with unconjugated primary antibodies were incubated for an additional 30 mins at 4° C. with secondary conjugated PE or -APC labeled antibodies. See Table I for a list of secondary antibodies used. Washed cells were pelleted and resuspended in the staining buffer, and the cell surface molecules were identified using a FACS Array (BD Biosciences) instrument, collecting at least 10,000 events.
as §1, §2

[4] = day 3, high concentration of Activin A
[5] = day 5, high concentration of activin A

Compound	inducing DE formation ([1]; H1P54 on MATRIGEL, 100 nM for first two days, compared to GSK-3B inhibitor VIII and XII)	expression of definitive endoderm markers [1]	AFP expression ([2]; lower concentration of Activin A, regardless of Wnt3a)	CXCR4 positive cells (FACS) [3, 4]	CXCR4 positive cells (FACS) [3, 5]	AFP expression ([2]; Wnt3a 20 ng/ml added to 100 ng/ml activin A, increases over time)	role in differentiation of human embryonic stem cells, cultured on MEFs, to definitive endoderm [3]
O=C1Nc2cc(Br)ccc2/C1=C1/Nc2ccccc2/C1=N\O [GSK-3B inhibitor IX, reference compound]	effective	Robust expression	–	–	–	–	–
Activin A: a member of the TGFβ superfamily; R&D Systems; Group 2 = Activin A (100 ng/ml)	–	–	very high	32-42%	28-32%	–	–
Wnt-3a	–	Robust expression	–	23-33%	43-51%	increase in the expression of AFP	does not appear to play a significant role
